For one data set, the system named is A2780DDP. The data set can be described thus: Inhibition of cancer cell growth as measured by cell number, A2780DDP. The following applies: Homo sapiens, read-out: IC50, inhibition of cancer cell growth. In kind it is cell-based. The method, then:
(§1) After 48 hours exposure to test compounds, cells were fixed with trichloroacetic acid, and stained with Sulforhodamine B. After washing with trichloroacetic acid, bound dye was solubilized in 10 mM Tris base and optical density was determined using plate reader. Under conditions of the assay the optical density is proportional to the number of cells in the well. […] The test procedure is described in details by Philip Skehan et. al, J.Natl. Canc.

The subject of another data set is MB435. The data set can be described thus: Inhibition of cancer cell growth as measured by cell number, MB435. The following applies: Homo sapiens, read-out: IC50, inhibition of cancer cell growth. The data set is classed as cell-based. The method, then: as §1
In another data set the test system is LOX. The data set is described as follows: Inhibition of cancer cell growth as measured by cell number, LOX. In kind it is cell-based. The following applies: Homo sapiens, read-out: IC50, inhibition of cancer cell growth. As for the experimental part:
as §1

A further data set relates to SKBR3. The data set can be described thus: Inhibition of cancer cell growth as measured by cell number, SKBR3. The data set is classed as cell-based. The following applies: Homo sapiens, read-out: IC50, inhibition of cancer cell growth. As for the experimental part: as §1
Another data set has as its system SW620. The data set can be described thus: Inhibition of cancer cell growth as measured by cell number, SW620. In kind it is cell-based. The following applies: Homo sapiens, read-out: IC50, inhibition of cancer cell growth. As for the experimental part: as §1
The subject of another data set is MCF7. The data set can be described thus: Inhibition of cancer cell growth as measured by cell number, MCF7. In kind it is cell-based. The following applies: Homo sapiens, read-out: IC50, inhibition of cancer cell growth. As for the experimental part: as §1
The next data set deals with A2780S. The data set is described as follows: Inhibition of cancer cell growth as measured by cell number, A2780S. The data set is classed as cell-based. The following applies: Homo sapiens, read-out: IC50, inhibition of cancer cell growth. As for the experimental part:
as §1

For another data set, the system named is A431. The data set is described as follows: Inhibition of cancer cell growth as measured by cell number, A431. The following applies: Homo sapiens, read-out: IC50, inhibition of cancer cell growth. The data set is classed as cell-based. As for the experimental part:
as §1

In data set [1] the test system is human epidermoid tumors (A431). In kind it is in vivo, BALB/c nu/nu female mice. The following applies: for % T/C / Relative Tumor Growth (RTG): days 1 through 10; for inhibition of tumor growth in vivo: in words. The method, then: BALB/c nu/nu female mice (Charles River, Wilmington, Mass.) were used in the in vivo standard pharmacological test procedures. […] A unit of 5×10^6 cells were injected SC into mice. When tumors attained a mass of between 100 and 150 mg, the mice were randomized into treatment groups (day zero). Mice were treated IP or PO once a day either on days 1, 5, and 9 or on days 1 through 10 post staging with doses of either 80, 40 or 20, or 10 mg/kg/dose of the compound to be evaluated in 0.2% Klucel. Control animals received no drug. […] […] The %T/C (Tumor/Control) is determined by dividing the relative tumor growth of the treated group by the relative tumor growth of the placebo group and multiplying by 100.

Molecules are shown by their SMILES. Converted amounts (≈) assume the structure as drawn. Like-named read-outs stand apart in the source and are kept apart here.

The term IC50 denotes the concentration needed to halve the response being measured. With `CN(C)CC=CC(=O)Nc1ccc2ncnc(Nc3cccc(Br)c3)c2c1` [Example 66, 4-Dimethylamino-but-2-enoic acid [4-(3-bromo-phenylamino)-quinazolin-6-yl]-amide], the IC50 in the data set with A2780DDP (48 h) is 5.1 µg/mL (≈ 12 µM); with MB435 (48 h), 5.4 µg/mL (≈ 12.7 µM); in the data set on LOX (48 h), 4.9 µg/mL (≈ 11.5 µM); in the data set on SKBR3 (SK-BR-3, 48 h) it was less than 0.01 µg/mL; in the data set on SW620 (SW-620, 48 h), 5.1 µg/mL (≈ 12 µM); in the data set with MCF7 (MCF7, 48 h) it was 7.6 µg/mL (≈ 17.8 µM). For the same compound, the half-maximal inhibitory concentration (IC50) came out at 3.9 µg/mL (≈ 9.15 µM) in the data set on A2780S (48 h) and 0.007 µg/mL (≈ 0.0164 µM) with A431 (A-431, 48 h).

As for `CC(C)(C)[Si](C)(C)OCC#CC(=O)Nc1ccc2ncnc(Nc3cccc(Br)c3)c2c1` [Example 15, 4-(tert-Butyl-dimethyl-silanyloxy)-but-2-ynoic acid [4-(3-bromo-phenylamino)-quinazolin-6-yl]-amide], the IC50 worked out at 0.05 µg/mL (≈ 0.0978 µM) in the data set on A2780DDP (48 h); 0.42 µg/mL (≈ 0.821 µM) with MB435 (48 h); 0.03 µg/mL (≈ 0.0587 µM) in the data set with LOX (48 h); 0.38 µg/mL (≈ 0.743 µM) in the data set with SKBR3 (SK-BR-3, 48 h); 0.02 µg/mL (≈ 0.0391 µM) in the data set on SW620 (SW-620, 48 h); 0.45 µg/mL (≈ 0.88 µM) with MCF7 (MCF7, 48 h). Moreover, the half-maximal inhibitory concentration (IC50) with A2780S (48 h) was 0.02 µg/mL (≈ 0.0391 µM); in the data set with A431 (A-431, 48 h), 0.04 µg/mL (≈ 0.0782 µM).

On to `C=C(CN1CCOCC1)C(=O)Nc1ccc2ncnc(Nc3cccc(Br)c3)c2c1` [Example 63, N-[4-(3-Bromo-phenylamino)-quinazolin-6-yl]-2-morpholin-4-ylmethyl-acrylamide], for which the half-maximal inhibitory concentration (IC50) in the data set on A2780DDP (48 h) was 4 µg/mL (≈ 8.54 µM); in the data set on MB435 (48 h), 4.5 µg/mL (≈ 9.61 µM); in the data set on LOX (48 h) it was 3.9 µg/mL (≈ 8.33 µM); in the data set on SKBR3 (SK-BR-3, 48 h), 10 µg/mL (≈ 21.4 µM); in the data set with SW620 (SW-620, 48 h), 5.5 µg/mL (≈ 11.7 µM); in the data set with MCF7 (MCF7, 48 h), 17 µg/mL (≈ 36.3 µM). For the same compound, the half-maximal inhibitory concentration (IC50) in the data set on A2780S (48 h) was found to be 0.8 µg/mL (≈ 1.71 µM); in the data set with A431 (A-431, 48 h), 0.6 µg/mL (≈ 1.28 µM).

Take `CCN(CC)CC#CC(=O)Nc1ccc2ncnc(Nc3cccc(Br)c3)c2c1` [Example 25, 4-Diethylamino-but-2-ynoic acid[4-(3-bromo-phenylamino)-quinazolin-6-yl]-amide]: the “% T/C” value was found to be 71% in data set [1] (40 PO, Day 7 (TABLE 5)); 33% in data set [1] (40 PO, Day 14 (TABLE 5)); 40% in data set [1] (40 PO, Day 21 (TABLE 5)); 52% in [1] (40 PO, Day 28 (TABLE 5)). Further, the “Relative Tumor Growth (RTG)” value in data set [1] (40 PO, Day 7, control 2.76 (TABLE 5)) was found to be 1.96; in [1] (40 PO, Day 14, control 7.07 (TABLE 5)), 2.33; in data set [1] (40 PO, Day 21, control 11.75 (TABLE 5)), 4.68; in data set [1] (40 PO, Day 28, control 17.13 (TABLE 5)) it was 8.84. Moreover, in data set [1], the “inhibition of tumor growth in vivo” value is listed as “effective inhibitor of tumor growth in vivo”. Moreover, in data set [1] (mouse, in vivo, po), the “S/T (No. Survivors/No. Treated)” value is reported as 4/5.

`CCN(CC)CC=CC(=O)Nc1ccc2ncnc(Nc3cccc(Br)c3)c2c1` [Example 67, 4-Diethylamino-but-2-enoic acid [4-(3-bromo-phenylamino)-quinazolin-6-yl]-amide]: the IC50 in the data set with A2780DDP (A2780DDP, 48 hours exposure) is 43 µg/mL (≈ 94.6 µM); in the data set on MB435 (MB435, 48 hours exposure) it was 45 µg/mL (≈ 99 µM); in the data set on LOX (48 hours exposure), 46 µg/mL (≈ 101 µM); in the data set on SKBR3 (SK-BR-3, SKBR3, 48 hours exposure), less than 0.01 µg/mL; in the data set on SW620 (SW-620, SW620, 48 hours exposure) it was 52 µg/mL (≈ 114 µM); in the data set on MCF7 (MCF7, 48 hours exposure), 59 µg/mL (≈ 130 µM). The half-inhibitory concentration (IC50) worked out at 22 µg/mL (≈ 48.4 µM) with A2780S (48 hours exposure) and 0.01 µg/mL (≈ 0.022 µM) with A431 (A-431, A431, 48 hours exposure).

As for `CN(C)CC#CC(=O)Nc1ccc2ncnc(Nc3cccc(Br)c3)c2c1` [Example 21, 4-Dimethylamino-but-2-ynoic acid [4-(3-bromo-phenylamino)-quinazolin-6-yl]-amide], the “% T/C” value in [1] (10 mg/kg/dose PO, Day 16) came to 56%; in [1] (10 mg/kg/dose PO, Day 21), 42%; in [1] (10 mg/kg/dose PO, Day 28) it was 42%; in data set [1] (20 mg/kg/dose PO, Day 7) it was 100%; in [1] (20 mg/kg/dose PO, Day 16), 82%; in data set [1] (20 mg/kg/dose PO, Day 28), 72%. Also, the “% T/C” value in data set [1] (40 mg/kg/dose PO, Day 7) was determined as 79%; in [1] (40 mg/kg/dose PO, Day 16), 84%. In addition, the “inhibition of tumor growth in vivo” value in data set [1] is recorded as “effective inhibitor of tumor growth in vivo”.

These data come from US6251912A, “Substituted quinazoline derivatives” (American Cyanamid Company, priority 1998, dated 2001).
